Results from US10206902B2, “Mono- or di-substituted indoles as dengue viral replication inhibitors” (priority 2014, dated 2019).

Experiments:
DENV-2 16681 strain = assay: DENV-2 antiviral assay (eGFP-labelled virus in Vero cells); type: cell-based, Dengue virus; details: Dengue virus, DENV2, Vero, 72 h, DENV-2 16681 eGFP, MOI 0.5, 3 days
Description: The antiviral activity of all the compounds of the invention was tested against DENV-2 16681 strain which was labeled with enhanced green fluorescent protein (eGPF). The culture medium consists of minimal essential medium supplemented with 2% of heat-inactivated fetal calf serum, 0.04% gentamycin (50 mg/mL) and 2 mM of L-glutamine. Vero cells, obtained from ECACC, were suspended in culture medium and 25 μL was added to 384-well plates (2500 cells/well), which already contain the antiviral compounds. Typically, these plates contain a 4-fold serial dilution of 9 dilution steps of the test compound at 200 times the final concentration in 100% DMSO (200 nL). In addition, each compound concentration is tested in quadruplicate (final concentration range: 25 μM-0.00038 μM). Finally, each plate contains wells which are assigned as virus controls (containing cells and virus in the absence of compound), cell controls (containing cells in the absence of virus and compound) and medium controls (containing medium in the absence of cells, virus and compounds). To the wells assigned as medium control, 25 μL of culture medium was added instead of Vero cells. Once the cells were added to the plates, the plates were incubated for 30 minutes at room temperature to allow the cells to distribute evenly within the wells. Next, the plates were incubated in a fully humidified incubator (37° C., 5% CO2) until the next day. Then, DENV-2 strain 16681, labeled with eGFP, was added at a multiplicity of infection (MOI) of 0.5. Therefore, 15 μL of virus suspension was added to all the wells containing test compound and to the wells assigned as virus control. In parallel, 15 μL of culture medium was added to the medium and cell controls. Next, the plates were incubated for 3 days in a fully humidified incubator (37° C., 5% CO2). At the day of the read out, the eGFP fluorescence was measured using an automated fluorescence microscope at 488 nm (blue laser). Using an in-house LIMS system, inhibition dose response curves for each compound were calculated and the half maximal effective concentration (EC50) was determined. Therefore, the percent inhibition (I) for every test concentration is calculated using the following formula: I=100*(ST−SCC)/(SVC−SCC); ST, SCC and SVC are the amount of eGFP signal in the test compound, cell control and virus control wells, respectively. The EC50 represents the concentration of a compound at which the virus replication is inhibited with 50%, as measured by a 50% reduction of the eGFP fluorescent intensity compared to the virus control. The EC50 is calculated using linear interpolation (Table 1).

in vitro = type: cell-based; details: African green monkey, CC50
Description: In parallel, the toxicity of the compounds was assessed on the same plates. Once the read-out for the eGFP signal was done, 10 μL of resazurin, a cell viability stain, was added to all wells of the 384-well plates. The resazurin assay is based on the reduction of the blue resazurin by NADH, produced by the cells, into the highly fluorescent product, resorufin. The formation of pink fluorescent resorufin is directly related to the number of viable cells in the well. The plates were incubated for an additional 5 hours in a fully humidified incubator (37° C., 5% CO2). Next, the plates were measured on an Infinite reader (Tecan) using an excitation wavelength of 530 nm. The half maximal cytotoxic concentration (CO50) was also determined, defined as the concentration required to reduce the resazurin conversion by 50% compared to that of the cell control wells (Table 1). Finally, the selectivity index (SI) was determined for the compounds, which was calculated as followed: SI=CC50/EC50.

With `COc1cc(NC(C(=O)c2c[nH]c3c(C)cc(F)cc23)c2ccc(F)cc2OC)cc(OCCO)c1` (racemic) [Compound 9, 2-(4-fluoro-2-methoxyphenyl)-1-(5-fluoro-7-methyl-1H-indol-3-yl)-2-((3-(2-hydroxyethoxy)-5-methoxyphenyl)amino)ethanone] as the compound, how does the EC50 (DENV-2 16681 strain) read?
Its EC50 is 0.0094 µM.

What about the CC50 (in vitro) of the same compound?
Its CC50 is 7.5 µM.

What about the melting point of the same compound?
The melting point was 179 °C.
